Experimental data from US10875829B1, “Azetidine derivatives useful as modulators of cortical catecholaminergic neurotransmission” (Integrative Research Laboratories Sweden AB, priority 2016, dated 2020).
Counter-ions that a name gives are not always drawn. Like-named read-outs stand apart in the source and are kept apart here. Marks after values point to notes of the source that are not given here.

Legend:
[1] = target: Human Norepinephrine Transporter (NET (h)) (Homo sapiens (Human), UniProt P23975); assay: Radioligand binding assay, human norepinephrine transporter ([3H]nisoxetine); conditions: for inhibition at 10 µM: 2 h, single concentration 1.0 E-5 M, duplicate, mean values; for IC50: dose-response curves
Procedure: (The measurement was performed as described in Pacholczyk, T., Blakely, R. D. and Amara, S. G. (1991), Expression cloning of a cocaine- and antidepressant-sensitive human noradrenaline transporter, Nature, 350: 350)
Cell membrane homogenates (20 μg protein) are incubated for 120 min at 4° C. with 1 nM [3H]nisoxetine in the absence or presence of the test compound in a buffer containing 50 mM Tris-HCl (pH 7.4), 120 mM NaCl and 5 mM KCl. Nonspecific binding is determined in the presence of 1 μM desipramine. Following incubation, the samples are filtered rapidly under vacuum through glass fiber filters (GF/B, Packard) presoaked with 0.3% PEI and rinsed several times with ice-cold 50 mM Tris-HCl using a 96-sample cell harvester (Unifilter, Packard). The filters are dried then counted for radioactivity in a scintillation counter (Topcount, Packard) using a scintillation cocktail (Microscint 0, Packard).
The results are expressed as a percent inhibition of the control radioligand specific binding.
[…] Reported values are mean values.

NA, DA and 5-HT = assay: In vivo brain microdialysis: extracellular monoamines in striatum and frontal cortex; design: species or system Sprague-Dawley rats; conditions: for response vs control in vivo at 50 µmol/kg / response vs control in vivo at 16.7 µmol/kg: Rattus norvegicus, sc
Description: The microdialysis technique is a well-established technique for measuring extracellular levels of neurotransmitters (Ungerstedt, J Int Med, 1991, 230; 365-73). The microdialysis technique was used to measure the effect of compounds disclosed herein upon the efflux of monoamine transmitters (NA, DA and 5-HT) in striatum and frontal cortex in conscious, freely moving rats.
Male Sprague-Dawley rats weighing 280-320 g were used throughout the experiments. Before the experiment the animals were housed in groups, maximum five animals in each cage, with free access to water and food. The animals were housed at least one week prior to surgery and use in the experiments.
A modified version (Waters et al., J Neural Transm Gen Sect, 1994, 98(1); 39-55) of the !-shaped probe (Santiago and Westerink, N-S Arch Pharmacol, 1990, 342; 407-14) with the AN69 polyacrylonitrile/sodium methyl sulfonate copolymer (HOSPAL; o.d/i.d. 310/220 μm: dialysis membrane (Gambro, Lund, Sweden) was used in the microdialysis experiments. In the dorsal striatum, probes with an exposed length of 3 mm of dialysis membrane were used and in the prefrontal cortex the corresponding length was 2.5 mm. The rats were operated under isoflurane inhalation anesthesia while mounted into a Kopf stereotaxic instrument. Coordinates were calculated relative to bregma; dorsal striatum AP+1.0, ML±2.6, DV 6.2; Pf cortex, AP+3.2, ML±1.2, DV −4.0 8°, according to Paxinos and Watson (New York, Academic Press, 1986; FIG. 8 and FIG. 14). The dialysis probe was positioned in a burr hole under stereotaxic guidance and cemented with phosphatine dental cement (DAB Dental).
The rats were housed individually in cages for 48 h before the dialysis experiments, allowing them to recover from surgery and minimizing the risk of drug interactions with the anesthetics during the following experiments. During this period the rats had free access to food and water. On the day of the experiment the rats were connected to a micro-perfusion pump via a swivel and were replaced in the cage where they could move freely within its confinements. The perfusion medium was a Ringer's solution containing (in mmol/l): NaCl; 140, CaCl2); 1.2, KCl; 3.0, MgCl2; 1.0 (Moghaddam and Bunney. Neurochem., 1989, 53; 652-4). The pump was set to a perfusion speed of 2 μl/min and 40 μl sample volume were collected every 20 min.
The rats were perfused for at least 40 min before sampling began. Five fractions of each 20 min were collected and the last three were used for the establishment of the baseline. After collection of baseline fractions, the pharmacological challenge to the dialysis experiment started. Test compounds were administrated by injection (s.c.) in a volume of 5 ml/kg, with 0.9% NaCl (saline) as vehicle.
The analytical method were based on two chromatographic separations dedicated for amines or acids. Two chromatographic systems shared a common auto injector with a 10-port valve and two sample loops for simultaneous injection on the two systems.
The acids were separated by reversed phase chromatography while the amines were separated by reversed phase ion pairing chromatography preceded by a reverse phase separation in a column switching configuration. Three separation columns (Luna C18 (2), dp 3 μm, 2 mm i.d., Phenomenex) of different lengths were used. Electrochemical detection was accomplished on glassy carbon electrodes (MF-1000, Bioanalytical Systems, Inc.)
The aqueous mobile phase (0.6 ml/min) for the acid system contained citric acid (40 mM, dipotassium hydrogen phosphate 10 mM, methanol 8-11% (v/v) and EDTA 0.1 mM. Column length was 30 mm and detection potential relative to Ag/AgCl reference was 0.74V.
The aqueous ion pairing mobile phase (0.4 ml/min) for the amine system contained citric acid 5 mM, sodium citrate 10 mM, acetone 9% (v/v), tetrahydrofurane 3% (v/v), dodecane sulphonic acid 0.025 mM, and EDTA 0.1 mM. Column length was 50 mm and the preceding column was 20 mm. […]

[2] = 50 μmol/kg s.c., striatum, n=1-3
[3] = 50 μmol/kg s.c., frontal cortex, n=1-3, read-out: 5-HT FC, maximum effect compared to baseline ± SEM
[4] = 50 μmol/kg s.c., frontal cortex, n=1-3, read-out: DA FC, maximum effect compared to baseline ± SEM
[5] = 50 μmol/kg s.c., striatum, n=1-3, read-out: 5-HT Stri, maximum effect compared to baseline ± SEM
[6] = 50 μmol/kg s.c., striatum, n=1-3, read-out: DA Stri, maximum effect compared to baseline ± SEM

Sequence of Human Norepinephrine Transporter (NET (h)) (P23975 whole entry): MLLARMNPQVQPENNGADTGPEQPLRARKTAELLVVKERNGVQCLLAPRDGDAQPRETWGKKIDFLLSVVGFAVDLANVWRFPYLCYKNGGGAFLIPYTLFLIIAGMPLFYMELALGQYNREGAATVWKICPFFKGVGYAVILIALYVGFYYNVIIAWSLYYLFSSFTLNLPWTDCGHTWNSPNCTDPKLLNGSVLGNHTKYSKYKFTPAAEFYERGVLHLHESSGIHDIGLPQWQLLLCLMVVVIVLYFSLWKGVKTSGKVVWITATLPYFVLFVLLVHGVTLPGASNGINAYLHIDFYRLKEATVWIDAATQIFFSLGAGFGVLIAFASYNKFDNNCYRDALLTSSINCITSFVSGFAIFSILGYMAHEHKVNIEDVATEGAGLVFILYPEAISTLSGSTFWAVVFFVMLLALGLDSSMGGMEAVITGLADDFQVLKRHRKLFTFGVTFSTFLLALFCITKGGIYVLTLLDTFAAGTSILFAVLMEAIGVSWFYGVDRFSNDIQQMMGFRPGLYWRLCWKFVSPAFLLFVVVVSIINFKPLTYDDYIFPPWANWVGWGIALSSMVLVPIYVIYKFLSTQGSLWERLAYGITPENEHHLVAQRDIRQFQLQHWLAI

| inhibition at 10 µM [1] [%] | IC50 [1] [µM] | fold more potent than Example 1A at NET ([1]; ratio of IC50 values of Table 6) [fold] | Compound | NA Stri, maximum effect compared to baseline ± SEM (NA, DA and 5-HT; [2]) | response vs control in vivo at 50 µmol/kg (NA, DA and 5-HT; [3]) [%] | response vs control in vivo at 50 µmol/kg (NA, DA and 5-HT; [4]) [%] | response vs control in vivo at 50 µmol/kg (NA, DA and 5-HT; 50 μmol/kg s.c., frontal cortex, n=1-3, read-out: NA FC, maximum effect compared to baseline ± SEM) [%] | response vs control in vivo at 50 µmol/kg (NA, DA and 5-HT; [5]) [%] | response vs control in vivo at 50 µmol/kg (NA, DA and 5-HT; [6]) [%] | NA Stri, maximum effect compared to baseline ± SEM (NA, DA and 5-HT; Dose 16.7 μmol/kg s.c, striatum) | response vs control in vivo at 16.7 µmol/kg (NA, DA and 5-HT; Dose 16.7 μmol/kg s.c, frontal cortex, read-out: 5-HT FC, maximum effect compared to baseline ± SEM) [%] | response vs control in vivo at 16.7 µmol/kg (NA, DA and 5-HT; Dose 16.7 μmol/kg s.c, frontal cortex, read-out: DA FC, maximum effect compared to baseline ± SEM) [%] | response vs control in vivo at 16.7 µmol/kg (NA, DA and 5-HT; Dose 16.7 μmol/kg s.c, frontal cortex, read-out: NA FC, maximum effect compared to baseline ± SEM) [%] | response vs control in vivo at 16.7 µmol/kg (NA, DA and 5-HT; Dose 16.7 μmol/kg s.c, striatum, read-out: 5-HT Stri, maximum effect compared to baseline ± SEM) [%] | response vs control in vivo at 16.7 µmol/kg (NA, DA and 5-HT; Dose 16.7 μmol/kg s.c, striatum, read-out: DA Stri, maximum effect compared to baseline ± SEM) [%] |
| --- | --- | --- | --- | --- | --- | --- | --- | --- | --- | --- | --- | --- | --- | --- | --- |
| 11 | – | – | CCN1CC(Oc2c(F)c(F)cc(F)c2F)C1 [Example 39, 1-ethyl-3-(2,3,5,6-tetrafluorophenoxy)azetidine hydrochloric acid salt] | 334 ± 10^a % of control | 256 | 359 | 414 | 281 | 218 ± 18 | – | – | – | – | – | – |
| 25 | – | – | Fc1cc(F)cc(OC2CNC2)c1 [Example 52C, 3-(3,5-difluorophenoxy)azetidine hydrochloric acid salt] | 196 ± 26^a % of control | 424 ± 119 | – | – | – | 147 ± 6 | – | – | – | – | – | – |
| 10 | – | – | Fc1ccc(F)c(OC2CNC2)c1F [Example 20, 3-(2,3,6-trifluorophenoxy)azetidine hydrochloric acid salt] | – | 164 ± 36 | 441 ± 35 | – | 141 | 146 ± 4 | – | – | – | – | – | – |
| 84 | 2.2 | 36 | Clc1ccc(OC2CNC2)cc1Cl [Reference Compound, 3-(3,4-dichlorophenoxy)azetidine hydrochloric acid salt, reference compound] | 987 ± 425 % of control | 682 ± 14 | – | – | – | 136 ± 48 | – | – | – | – | – | – |

The remaining lines, values behind:

| Compound | inhibition at 10 µM [1] [%] | IC50 [1] [µM] | fold more potent than Example 1A at NET ([1]; ratio of IC50 values of Table 6) [fold] | NA Stri, maximum effect compared to baseline ± SEM (NA, DA and 5-HT; [2]) | response vs control in vivo at 50 µmol/kg (NA, DA and 5-HT; [3]) [%] | response vs control in vivo at 50 µmol/kg (NA, DA and 5-HT; [4]) [%] | response vs control in vivo at 50 µmol/kg (NA, DA and 5-HT; 50 μmol/kg s.c., frontal cortex, n=1-3, read-out: NA FC, maximum effect compared to baseline ± SEM) [%] | response vs control in vivo at 50 µmol/kg (NA, DA and 5-HT; [5]) [%] | response vs control in vivo at 50 µmol/kg (NA, DA and 5-HT; [6]) [%] | NA Stri, maximum effect compared to baseline ± SEM (NA, DA and 5-HT; Dose 16.7 μmol/kg s.c, striatum) | response vs control in vivo at 16.7 µmol/kg (NA, DA and 5-HT; Dose 16.7 μmol/kg s.c, frontal cortex, read-out: 5-HT FC, maximum effect compared to baseline ± SEM) [%] | response vs control in vivo at 16.7 µmol/kg (NA, DA and 5-HT; Dose 16.7 μmol/kg s.c, frontal cortex, read-out: DA FC, maximum effect compared to baseline ± SEM) [%] | response vs control in vivo at 16.7 µmol/kg (NA, DA and 5-HT; Dose 16.7 μmol/kg s.c, frontal cortex, read-out: NA FC, maximum effect compared to baseline ± SEM) [%] | response vs control in vivo at 16.7 µmol/kg (NA, DA and 5-HT; Dose 16.7 μmol/kg s.c, striatum, read-out: 5-HT Stri, maximum effect compared to baseline ± SEM) [%] | response vs control in vivo at 16.7 µmol/kg (NA, DA and 5-HT; Dose 16.7 μmol/kg s.c, striatum, read-out: DA Stri, maximum effect compared to baseline ± SEM) [%] |
| --- | --- | --- | --- | --- | --- | --- | --- | --- | --- | --- | --- | --- | --- | --- | --- |
| Fc1cc(F)c(F)c(OC2CNC2)c1F [Example 3, 3-(2,3,5,6-tetrafluorophenoxy)-azetidine hydrochloric acid salt] | 25 | – | – | – | 205 ± 78 | 735 ± 18 | – | 197 ± 80 | 196 ± 22 | – | – | – | – | – | – |
| Fc1cccc(OC2CNC2)c1F [Example 1A, 3-(2,3-difluorophenoxy)azetidine hydrochloric acid salt] | 37 | 79 | – | 155 ± 33^a % of control | 207 ± 49 | – | – | 217 ± 21 | 155 ± 9.6 | – | – | – | – | – | – |
| Fc1cc(F)c(F)c(OC2CNC2)c1 [Example 2, 3-(2,3,5-trifluorophenoxy)azetidine hydrochloric acid salt] | 25 | – | – | – | 160 ± 32 | 600 ± 5.8 | – | 202 ± 5.6 | 134 ± 13 | – | – | – | – | – | – |
| Fc1cc(F)cc(OC2CNC2)c1.O=C(O)C(O)C(O)C(=O)O [Example 52B, 3-(3,5-difluorophenoxy)azetidine (+)-tartaric acid salt] | – | – | – | – | – | – | – | – | – | 151^b % of control | 213 ± 86 | 638 ± 106 | 968 ± 176 | 146 ± 18 | 120 ± 6 |
